# In US20060035810A1, “Regulation of ins(3456)p4 signalling by a reversible kinase phosphatase and methods and compositions related thereto” (priority 2002, published 2006):
# How the values were obtained:
# [1] = molecular target: T1, Ins(1,3,4,5,6)P5 1-phosphatase activity of Ins(3,4,5,6)P4 kinase (Homo sapiens, UniProt Q13572); assay: Inositol phosphate phosphatase activity assay with ADP (HPLC); format: biochemical
# T1 construct: made in house; host or cells: E. coli
# T1 sequence (Q13572 1-414): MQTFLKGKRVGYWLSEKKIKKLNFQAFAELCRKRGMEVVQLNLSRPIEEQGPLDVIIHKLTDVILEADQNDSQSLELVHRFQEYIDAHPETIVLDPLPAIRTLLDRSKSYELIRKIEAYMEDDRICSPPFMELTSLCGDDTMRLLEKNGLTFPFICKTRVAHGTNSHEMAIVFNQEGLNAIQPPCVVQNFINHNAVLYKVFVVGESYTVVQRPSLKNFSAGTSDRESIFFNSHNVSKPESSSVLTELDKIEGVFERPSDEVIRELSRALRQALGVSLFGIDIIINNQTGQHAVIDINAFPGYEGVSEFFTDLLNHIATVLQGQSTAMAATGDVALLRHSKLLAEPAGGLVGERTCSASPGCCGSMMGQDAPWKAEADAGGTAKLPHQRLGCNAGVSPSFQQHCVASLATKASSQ
# Procedure: Ins(3,4,5,6)P4 kinase (0.4 μg) was incubated for 30 min in 100 μl phosphatase assay buffer (see Methods) either with (closed circles) or without (open circles) 5 mM ADP plus trace-amounts of either [^3H]Ins(1,3,4,5,6)P5 (panel A) [^3H]Ins(1,3,4,6)P4 (panel B), or [^3H]Ins(1,3,4,5)P4 (panel C). Samples were analyzed by HPLC (see Methods). The elution positions of Ins(1,3,4)P3 and Ins(3,4,5,6)P4 were verified with genuine standards. The elution positions of Ins(1,3,4,6)P4 (106 min, panel B) and of Ins(1,3,4,5)P4 (110 min, panel C) exclude these as products of InsP5 dephosphorylation (panel A).
# Additional incubations were performed with 5 μM [^3H]Ins(1,3,4)P3 (approx. 1200 d.p.m.) plus either no Ins(1,3,4,5,6)P5 (open circles) or 5 μM non-radiolabeled Ins(1,3,4,5,6)P5 (closed circles); these reactions were assayed by HPLC (Synchropak Q100 column) and the InsP4 region of the chromatogram is shown in Panel B.
# Inositol phosphate phosphatase activity was assayed in buffer containing 100 mM KCl, 20 mM HEPES pH 7.2, 5 mM ADP, 6 mM MgSO4, 0.3 mg/ml bovine serum albumin. Assays were acid-quenched, neutralized and analyzed by HPLC using a Synchropak Q100 columm (Caffrey et al., “Expanding Coincident Signaling by PTEN through its Inositol 1,3,4,5,6-Pentakisphosphate 3-phosphatase Activity,” FEBS Lett 499: 6-10 (2001)); 1 ml fractions were collected for 70 min., followed by 0.5 ml fractions. Inositol phosphate kinase activity was assayed in buffer containing 100 mM KCl, 20 mM HEPES pH 7.2, 5 mM ATP, 10 mM phosphocreatine, 6 mM MgSO4, 10 μg/ml creatine phosphokinase (Calbiochem), 0.3 mg/ml bovine serum albumin. Some assays were acid-quenched and analyzed by HPLC using a Synchropak Q100 column. Other reactions were heat-inactivated (95° C., 3 min) and analyzed by a metal dye detection, HPLC method (Mayr, “A novel metal-dye detection sysytem permits picomolar-range h.p.l.c. analysis of inositol polyphosphates from non-radioactively labelled cell or tissue specimens,” Biochem J 254: 585-591 (1988); Adelt et al., “Enzyme-assisted total synthesis of the optical antipodes D-myo-inositol 3,4,5-trisphosphate and D-myo-inositol 1,5,6-trisphosphate: aspects of their structure-activity relationship to biologically active inositol phosphates,” J Med Chem 42: 1262-1273 (1999)).
# [2] = system: calcium-activated Cl− channels; conditions: read-out: sensitivity of calcium-activated Cl− channels to Ins(3,4,5,6)P4 (IC50); cited from earlier work
# [3] = system: calcium-activated Cl− channels; assay: Whole-cell Cl− current in CFPAC-1 cells (bio-assay for Ins(3,4,5,6)P4); format: cell-based, human; conditions: 10 μM in CFPAC-1 cells; control 54±3 pA/pF; +40 mV, free [Ca2+] 0.5 μM
# Procedure: T84 cells were detached by incubation with 0.25% (w/v) trypsin/0.02% (w/v) EDTA for 5-6 min. After trypsin removal, 200 μl aliquots (1.5×10^6/ml) were seeded into the circular wells (area=0.45 cm^2) of permeable supports, made by gluing (Silastic® sealant, Dow Corning, Midland, Mich.) a Sylgard® ring to filters composed of mixed cellulose esters (Millipore Corp., Bedford, Mass.). Seeded supports were floated on culture medium and incubated for 11-14 days before being mounted in modified Snapwell holders in Using chambers (EasyMount System, Physiologics Instruments, San Diego, Calif.). Transcellular Cl^− flux was then recorded as the short-circuit current as previously described. The resistance of the monolayers were (vector) 346±44 ohms/cm^2 (mean±se, n=12) and (kinase) 354±62 ohms/cm^2 (mean±se, n=12). Whole-cell Cl^− currents in CFPAC—I cells were measured at +40 mV as previously described using an intracellular Ca^2+-BAPTA buffer to clamp free [Ca^2+] to 0.5 μM [8]. One possibility is that Ins(3,4,5,6)P4 originates by phosphorylation of an InsP3 precursor. […] Control whole-cell Cl^− current (54±3 pA/pF, n—17) was reduced to 24±3 pA/pF (n=7) by 10 μM Ins(3,4,5,6)P4.
"Vmax for dephosphorylation ([1]; with Ins(1,3,4)P3 present)",SMILES,"product of ADP-dependent dephosphorylation ([1]; 5 mM ADP, trace amounts of substrate)",IC50 [2],whole-cell Cl− current [3]
82 pmol/μg protein/min,"O=P(O)(O)OC1[C@@H](OP(=O)(O)O)[C@H](OP(=O)(O)O)C(O)[C@H](OP(=O)(O)O)[C@H]1OP(=O)(O)O (stereo partly shown) [Ins(1,3,4,5,6)P5, inositol 1,3,4,5,6-pentakisphosphate]","dephosphorylated to an [^3H]InsP4 peak co-eluting upon HPLC with a standard of Ins(3,4,5,6)P4",–,–
–,"O=P(O)(O)OC1C(O)C(O)C(OP(=O)(O)O)C(OP(=O)(O)O)C1OP(=O)(O)O (stereo not shown) [Ins(3,4,5,6)P4, inositol 3,4,5,6-tetrakisphosphate]",–,3000 nM,24±3 pA/pF
